{"source": "BindingDB's records for PubMed 8035312", "about": "(University of California, 1994)", "note": "Several values for one entry are separate records, joined by “and”; a condition that tells them apart may be missing. Equal values may be shown once."}
{"molecular_target": "Nicotinic acetylcholine receptor (Rattus leucopus, UniProt Q62594)", "sequence (Q62594 whole entry)": "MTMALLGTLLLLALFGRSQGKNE"}
{"smiles": "C=C(C=O)C[C@H]1C[C@H](O)[C@]2(C)O[C@@H]3C[C@@H]4O[C@@H]5C[C@]6(C)O[C@]7(C)CC[C@@H]8O[C@@H]9C[C@]%10(C)O[C@@H]%11C(C)=CC(=O)O[C@H]%11C[C@H]%10O[C@H]9C[C@@H](C)[C@H]8O[C@H]7C[C@H]6O[C@@]5(C)C/C=C\\[C@H]4O[C@H]3C[C@H]2O1", "Ki": "> 10 µM and 1 µM"}
{"smiles": "CNC(=O)OCC[N+](C)(C)C", "note": "[CAS_14721-69-8]", "Ki": "0.0052 µM"}
{"smiles": "C[N+](C)(C)CCCCCC[N+](C)(C)C", "note": "[Hexamethoniumdibromide]", "Ki": "> 10 µM"}
{"smiles": "CN1[C@@H](C[C@@H](O)c2ccccc2)CCC[C@H]1CC(=O)c1ccccc1", "note": "[Lobeline]", "Ki": "0.0155 µM"}
{"smiles": "O=C1N(Cc2ccccc2)C2C[S+]3CCCC3C2N1Cc1ccccc1", "note": "(stereo unspecified) [NSC_441310]", "Ki": "> 10 µM"}
{"smiles": "COc1cc2c3cc1Oc1cc(ccc1O)C[C@@H]1c4c(cc(OC)c(O)c4Oc4ccc(cc4)C[C@@H]3N(C)CC2)CC[N+]1(C)C", "note": "[Tubocurarine,d]", "Ki": "1 µM and 0.282 µM"}
